# Patent publication US10377731B2, “Compositions and methods for cancer treatment” (Boston Biomedical, Inc., priority 2007, dated 2019)
# pIC50: −log10 of the molar value. Entries after “also recorded” stand apart in the source; their conditions may differ.
# Experiments:
# Type in all cases: cell-based
# Stat3 = test: Stat3-luciferase (Stat3-Luc) reporter assay, OSM-stimulated HeLa cells; details: HeLa cells
# Procedure: Luciferase Reporter Assay: HeLa Cells were co-transfected with Stat3-luciferase (Stat3-Luc) reporter vector (Panomics, Fremont, Calif.) and Renilla luciferase (Promega, Madison, Wis.) using Lipofectamine 2000 as described by the manufacturer (Invitrogen). Following transfection, cells were maintained in medium containing 0.5% FBS for 24 hours. Cells were then treated with the indicated compound for 30 minutes prior to the addition of 25 ng/ml oncostatin M (OSM) (R&D Systems, Minneapolis, Minn.) to the medium. 6 hours following OSM addition, cells were harvested and levels of firefly and renilla luciferase were measured using the Dual-Glo Luciferase Assay System as described by the manufacturer (Promega).
# Inhibition of Stat3 transcription activity. Compounds were tested for their ability to inhibit Stat3 transcription activation activity in cells using a Stat3-luciferase (Stat3-luc) reporter construct. Cells transfected with Stat3-luc were cultured in reduced serum medium prior to addition of indicated compound for 30 minutes. Cells were then stimulated with 25 ng/ml oncostatin M (OSM) for 6 hours followed by detection of Stat3-luc reporter activity. […] AG490, a known inhibitor of the Jak-Stat pathway, was included as a positive control for Stat3 inhibition.
# [1] = system: Hoechst side population cells; test: Annexin V staining of Hoechst side population cells; details: Hoechst side population cells treated with compound
# Procedure: Hoechst Side Population: To identify and isolate side population (SP) and non-SP fractions, SW480 cells were removed from the culture dish with trypsin and EDTA, pelleted by centrifugation, washed with phosphate-buffered saline (PBS), and resuspended at 37° C. in Dulbecco's modified Eagle's medium (DMEM) containing 2% FBS and 1 mM HEPES. The cells were then labeled with Hoechst 33342 (Invitrogen) at a concentration of 5 μg/mL. The labeled cells were incubated for 120 minutes at 37° C., either alone or with 50 μM verapamil (Sigma-Aldrich, St. Louis). After staining, the cells were suspended in Hanks' balanced saline solution (HBSS; Invitrogen) containing 2% FBS and 1 mM HEPES, passed a through 40 μm mesh filter, and maintained at 4° C. until flow cytometry analysis. The Hoechst dye was excited at 350 nm, and its fluorescence was measured at two wavelengths using a 450 DF10 (450/20 nm band-pass filter) and a 675LP (675 nm long-pass edge filter) optical filter. The gating on forward and side scatter was not stringent, and only debris was excluded.
# Analysis of Apoptosis: Cells treated with or without compound were harvested at 5 hours post treatment for Annexin-V staining. Collected cells were washed with PBS and resuspended in Annexin-V-FITC containing buffer and stained according to manufactures directions (Roche). Annexin-V positive cells were determined by Flow cytometry. […]
# CD133+ cells = test: Cleaved-Caspase 3 staining of CD133+ cells; details: CD133+ cells enriched with antibody magnetic beads
# Description: CSC isolation with surface markers: Sorting tumor cells based primarily upon the differential expression of the surface marker(s), such as CD44 or CD133, have accounted for the majority of the highly tumorigenic CSCs described to date. CD133 isolation is based upon the method of Ricci-Vitiani et al., with slight modification. CD133^+ cells were isolated by either fluorescence activated cell sorting (FACS) or magnetic nanoparticle-based separation. Briefly, 10^7 cells/mL were labeled with CD133/1 (AC133)-PE for FACS-based cell sorting; or with CD133/1 (AC133)-biotin (Miltenyi Biotec, Auburn, Calif.) for magnetic field-based separation using the EasySep® biotin selection kit (Miltenyi Biotec) according to the manufacturer's recommendations. Non-specific labeling was blocked with the supplied FcR blocking reagent and antibody incubations (1:11) were carried out on ice for 15 minutes in PBS with 2% FBS and 1 mM EDTA. Five washes were done for EasySep® isolation, whereas cells were pelleted at 400×g for 5 minutes and resuspended at 2×10^7/mL, before sorting by FACS.
# Immunofluorescence: Cells treated with indicated compound for an indicated time were either fixed in 4% formaldehyde or cold methanol for the detection of Annexin V, cleaved caspase 3, or stat3, respectively. Coverslips were air dried and rehydrated in PBS at room temperature for 10 min. […]
# [2] = system: A549 human lung cancer cells; test: 72 hour MTT, A549 cells, single drugs and combinations; details: 72 hour MTT A549 cells, read-out: Compound 401 (% Inhibition)
# Procedure: (§1) Cell Viability Determination: For 3-(4,5 dimethylthiazol-2-yl)-2,5-diphenyltetrazolium (MTT) (Sigma-Aldrich, St. Louis, Mo.) analysis, cells were plated in 96 well plates at 10,000 cells per well. 24 hours after plating, compound was added to cells at indicated doses. […] following compound addition, MTT was added to each well (0.5 mg/ml, final concentration) and plates were incubated for an additional 2 hours at 37° C. Medium was then aspirated and the formazan product was solubilized in 100 μl of isopropyl alcohol. The absorbance of each well was measured at 570 nm using a microplate reader.
# (§2) Paca2 human pancreatic cancer cells, A549 human lung cancer cells, and HepG2 human liver cancer cells (American Type Culture Collection) were cultured in Dulbecco's modified Eagle's medium containing 10% fetal bovine serum, 100 units/mL penicillin, 100 μg/mL streptomycin, and 2 mM L-glutamine. […] Erlotinib was from American Custom Chemicals (San Diego, Calif.). Gemcitabine was from Eli Lilly (Indianapolis, Ind.) in an aqueous 20 mM stock solution. Sorafenib was Mass.). Unless otherwise noted all compounds were solubilized in DMSO at 10 mM and aliquoted at −20° C. Exponentially growing Paca2 pancreatic cancer cells were seeded at 1,000 cells per well in 6-well plates and allowed to attach for 24 hours. Increasing concentrations of individual drugs and those in combination were then added to the media for another 24 hours. After 24 hours exposure, the drug was removed and fresh media was added for the next 10-14 days, allowing for colony formation. Cells were fixed and stained with GIEMSA (Gibco BRL). […] Results are an average of duplicate experiments. Alternatively, MTT assays were performed 72 hours post-treatment in A549 and HepG2 cells.
# [3] = system: HepG2 human liver cancer cells; test: 72 hour MTT, HepG2 cells, single drugs and combinations; details: read-out: Compound 401 (% Inhibition)
# Procedure: as §1, §2
compound,measurement,setting,value
"CC(=O)c1cc2c(o1)C(=O)c1ccccc1C2=O [Compound 401, 2-acetylnaphtho[2,3-b]furan-4,9-dione]",Inhibition of OSM-stimulated Stat3 reporter activity (in words),"Stat3; Stat3-luc, 25 ng/ml OSM for 6 hours",inhibits
same,pIC50,"Stat3; Homo sapiens, compound 30 minutes before 25 ng/ml oncostatin M, read 6 hours later, read-out: IC50 in Stat3-Luc assays",~6.60
same,"Mode of cell death, Annexin V staining",[1],dying cells are Annexin V positive; also recorded: apoptotic
same,Cleaved-Caspase 3 staining (apoptosis),CD133+ cells,many of the CD133^+ cells become cleaved-Caspase 3 positive; also recorded: apoptotic
same,inhibition at 0.25 µM,[2]; 401 alone 250 nM,36%
same,inhibition at 0.5 µM,[2]; 401 alone 500 nM,35%
same,inhibition at 0.125 µM,[3]; 401 alone 125 nM,7%
same,inhibition at 0.25 µM,[3]; 401 alone 250 nM,43%
